Each structure is given as a SMILES string.

This is an account of results in ChEMBL document CHEMBL1126986, “Nonsteroidal inhibitors of human type I steroid 5-alpha-reductase” (J Med Chem, 1993).

The first assay has as its target T1, 3-oxo-5-alpha-steroid 4-dehydrogenase 1 (Homo sapiens, UniProt P18405).
T1 sequence (P18405 whole entry): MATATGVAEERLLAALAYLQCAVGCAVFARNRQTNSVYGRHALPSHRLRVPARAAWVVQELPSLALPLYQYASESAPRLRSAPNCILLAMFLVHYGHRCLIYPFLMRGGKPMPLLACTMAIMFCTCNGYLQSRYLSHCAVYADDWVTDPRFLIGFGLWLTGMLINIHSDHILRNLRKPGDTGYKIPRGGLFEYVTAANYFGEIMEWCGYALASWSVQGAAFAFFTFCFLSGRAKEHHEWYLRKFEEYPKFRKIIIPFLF
Briefly: Compound was tested for inhibition of Type I 5-alpha-reductase in Human genital skin (Hs68) foreskin fibroblast cells. It counts as cell-based.
For `CC(C)(C)NC(=O)[C@H]1CC[C@H]2[C@@H]3CC[C@H]4NC(=O)C=C[C@]4(C)[C@H]3CC[C@]12C` [FINASTERIDE], inhibition was half-maximal at 62 nM (IC50).

The target of the next assay is T2, 3-oxo-5-alpha-steroid 4-dehydrogenase 2 (Homo sapiens, UniProt P31213).
T2 sequence (P31213 whole entry): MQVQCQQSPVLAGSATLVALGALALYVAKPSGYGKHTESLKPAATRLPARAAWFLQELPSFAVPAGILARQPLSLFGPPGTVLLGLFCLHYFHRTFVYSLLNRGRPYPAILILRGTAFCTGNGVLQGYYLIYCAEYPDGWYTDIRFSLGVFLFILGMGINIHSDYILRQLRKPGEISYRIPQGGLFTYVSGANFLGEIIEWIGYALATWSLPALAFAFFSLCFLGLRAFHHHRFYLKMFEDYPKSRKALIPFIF
Briefly: Compound was tested for inhibition of Type II 5-alpha-reductase in Human Prostate Homogenates (HPH).
As for `CC(C)(C)NC(=O)[C@H]1CC[C@H]2[C@@H]3CC=C4C=C(C(=O)O)CC[C@]4(C)[C@H]3CC[C@]12C` [EPRISTERIDE], half-maximal inhibition (IC50) was put at 8 nM.

As to `CN1C(=O)CC[C@@H]2c3ccc(Cl)cc3CC[C@H]21` [BEXLOSTERIDE], the IC50 (as a rule, the concentration that inhibits the measured activity by half) is > 10000 nM.

The target of a further assay is T1, 3-oxo-5-alpha-steroid 4-dehydrogenase 1. Briefly: In vitro inhibition of DHT production in Hs 68 (human genital fibroblast) cells.
In turn, `O=C1CCC2=C(CCc3c(F)cccc32)N1` came in with an IC50 of 3200 nM. As to `O=C1CC[C@@H]2c3ccc(Cl)cc3CC[C@H]2N1`, the IC50 was determined as 60 nM. In turn, `CN1C(=O)CCC2(C)C1=CCc1cc(Cl)ccc12` (stereo not drawn) yielded an IC50 of 120 nM. Consider `Cc1ccc2c(c1)CC[C@@H]1[C@@H]2CCC(=O)N1C`, for which the half-maximal inhibitory concentration (IC50) is 11 nM. On the same count and under the same terms, then `CN1C(=O)CC[C@@H]2c3ccccc3CC[C@H]21`, with 560 nM. The molecule `CN1C(=O)CC[C@@H]2c3ccc(F)cc3CC[C@@H]21` returned an IC50 of 320 nM.

For `CN1C(=O)CC[C@@H]2c3ccc(Cl)cc3CC[C@@H]21`, the IC50 is 41 nM. Regarding `CN1C(=O)CC[C@@H]2c3ccc(F)cc3CC[C@H]21`, the concentration for half-maximal inhibition (IC50) worked out at 35 nM. In turn, `CN1C(=O)CC[C@]2(C)c3ccc(Cl)cc3CC[C@@H]12` yielded an IC50 of 17 nM. In turn, `CC(C)(C)NC(=O)[C@H]1CC[C@H]2[C@@H]3CC=C4C=C(C(=O)O)CC[C@]4(C)[C@H]3CC[C@]12C` [EPRISTERIDE] registered an IC50 of 7500 nM.

The molecule `O=C1CCC2=C(CCc3ccc(F)cc32)N1` displayed an IC50 of 2300 nM. `O=C1CCC2=C(CCc3cc(F)ccc32)N1` came in with an IC50 of 600 nM.

Take `CC12CCC(=O)NC1=CCc1cc(Cl)ccc12` (stereo not drawn): the half-maximal inhibitory concentration (IC50) stood at 3600 nM.

With `CN1C(=O)CCC2=C1CCc1cc(Cl)ccc12`, the half-maximal inhibitory concentration (IC50) amounted to 30 nM.

On to `C[C@]12CCC(=O)N[C@@H]1CCc1cc(Cl)ccc12`, for which inhibition was half-maximal at 1800 nM (IC50). The molecule `O=C1CCC2=C(CCc3ccccc32)N1` showed an IC50 of 6500 nM. `O=C1CCC2=C(CCc3cc(Cl)ccc32)N1` had an IC50 of 460 nM. Still for that read-out and setting: for `CN1C(=O)CC[C@@H]2c3ccc(Cl)cc3CC[C@H]21` [BEXLOSTERIDE] the value was 8 nM; for `COc1ccc2c(c1)CC[C@@H]1[C@@H]2CCC(=O)N1C`, 120 nM; for `O=C1CCC2=C(CCc3cccc(F)c32)N1`, 10000 nM.
